What was measured:
[1] = biological target: GDP-bound NRAS wild-type protein (Homo sapiens, UniProt P01111); experiment: Binding to NRAS by surface plasmon resonance (SPR), Single Cycle Kinetics; conditions: SPR; KD ratio class
[2] = biological target: GDP-bound HRAS wild-type protein (Homo sapiens, UniProt P01112); experiment: Binding to HRAS by surface plasmon resonance (SPR), Single Cycle Kinetics; conditions: SPR; KD ratio class
[3] = system: human lung cancer strain NCI-H441; experiment: cells; conditions: NCI-H441, 96 h, read-out: NCI-H441 IC50 (nM)

Sequence of GDP-bound HRAS wild-type protein (P01112 whole entry): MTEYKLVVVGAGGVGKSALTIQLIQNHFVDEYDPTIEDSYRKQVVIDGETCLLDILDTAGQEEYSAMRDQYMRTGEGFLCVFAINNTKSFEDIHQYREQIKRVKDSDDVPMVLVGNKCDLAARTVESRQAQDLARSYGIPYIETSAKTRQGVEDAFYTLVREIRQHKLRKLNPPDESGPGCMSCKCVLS
Sequence of GDP-bound NRAS wild-type protein (P01111 whole entry): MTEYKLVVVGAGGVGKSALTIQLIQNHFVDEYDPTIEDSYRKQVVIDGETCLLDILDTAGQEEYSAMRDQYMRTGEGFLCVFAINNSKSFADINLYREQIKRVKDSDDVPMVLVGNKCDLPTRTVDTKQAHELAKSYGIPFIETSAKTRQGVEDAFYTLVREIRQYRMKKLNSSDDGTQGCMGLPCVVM

Compound | NRAS/KRAS (ratio of KD value for GDP-bound NRAS wild-type protein to KD value for KRAS) [1] | HRAS/KRAS (ratio of KD value for GDP-bound HRAS wild-type protein to KD value for KRAS) [2] | IC50 [3] [nM]
CCO[C@@H]1C[C@H]2C(=O)NC3(CCC3)C(=O)N(C)[C@@H](C(CC)CC)C(=O)N(C)[C@H](C(=O)N(C)C)CC(=O)N(C)[C@@H](COC)C(=O)N[C@@H]([C@@H](C)CC)C(=O)N(C)CC(=O)N(C)[C@H]3C/C=C\CCN(C3=O)[C@@H](Cc3ccc(C(F)(F)F)cc3)C(=O)N(C)CC(=O)N[C@@H](CCc3cc(F)c(C(F)(F)F)c(F)c3)C(=O)N2C1 [PP1205] | AA (a compound having 20 or more is denoted as AA) | A (a compound having 10 or more and less than 20 is denoted as A) | 25.4
CCO[C@@H]1C[C@H]2C(=O)NC3(CC(C)(C)C3)C(=O)N(C)[C@@H](C3CCCC3)C(=O)N(C)[C@H](C(=O)N(C)C)CC(=O)N(C)[C@@H](CC3CCCC3)C(=O)N[C@@H]([C@@H](C)CC)C(=O)N(C)CC(=O)N(C)[C@H]3C/C=C\CCN(C3=O)[C@@H](Cc3ccc(C(F)(F)F)cc3)C(=O)N(C)CC(=O)N[C@@H](CCc3ccc(C(F)(F)F)c(OC)c3)C(=O)N2C1 [PP1565] | A (a compound having 10 or more and less than 20 is denoted as A) | B (a compound having 3 or more and less than 10 is denoted as B) | 6.5
CC[C@H](C)[C@@H]1NC(=O)[C@H](CC2CC2)N(C)C(=O)C[C@@H](C(=O)N(C)C)N(C)C(=O)[C@H](C2CCCC2)N(C)C(=O)C2(CCCC2)NC(=O)[C@@H]2CCCN2C(=O)[C@H](CCc2cc(F)c(C(F)(F)F)c(F)c2)NC(=O)CN(C)C(=O)[C@H](Cc2ccc(C(F)(F)F)cc2)N2C[C@H](C)[C@H](C)C[C@@H](C2=O)N(C)C(=O)CN(C)C1=O [PP1368] | A (a compound having 10 or more and less than 20 is denoted as A) | B (a compound having 3 or more and less than 10 is denoted as B) | 2.9
CCO[C@@H]1C[C@H]2C(=O)NC3(CCC3)C(=O)N(C)[C@@H](C3CCCC3)C(=O)N(C)[C@H](C(=O)N3CCOCC3)CC(=O)N(C)[C@@H](CC3CC3)C(=O)N[C@@H]([C@@H](C)CC)C(=O)N(C)CC(=O)N(C)[C@H]3C/C=C\CCN(C3=O)[C@@H](Cc3ccc(F)cc3C)C(=O)N(C)CC(=O)N[C@@H](CCc3cc(F)c(C(F)(F)F)c(F)c3)C(=O)N2C1 [PP1495] | A (a compound having 10 or more and less than 20 is denoted as A) | B (a compound having 3 or more and less than 10 is denoted as B) | 98.7
CCO[C@@H]1C[C@H]2C(=O)NC3(CCC3)C(=O)N(C)[C@@H](C3CCCC3)C(=O)N(C)[C@H](C(=O)N3CCOCC3)CC(=O)N(C)[C@@H](CC(C)C)C(=O)N[C@@H]([C@@H](C)CC)C(=O)N3CC[C@H]3C(=O)N(C)[C@H]3C[C@@H](C)[C@@H](C)CN(C3=O)[C@@H](Cc3ccc(C(F)(F)F)cc3)C(=O)N(C)CC(=O)N[C@@H](CCc3ccc(C(F)(F)F)c(Cl)c3)C(=O)N2C1 [PP1361] | A (a compound having 10 or more and less than 20 is denoted as A) | B (a compound having 3 or more and less than 10 is denoted as B) | 6.2
CC[C@H](C)[C@@H]1NC(=O)[C@H](CC)N(C)C(=O)C[C@@H](C(=O)N2CCOCC2)N(C)C(=O)[C@H](C2CCCC2)N(C)C(=O)C2(CCCC2)NC(=O)[C@@H]2CCCN2C(=O)[C@H](CCc2cc(F)c(C(F)(F)F)c(F)c2)NC(=O)CN(C)C(=O)[C@H](Cc2ccc(C(F)(F)F)cc2)N2CC(C)[C@@H](C)C[C@@H](C2=O)N(C)C(=O)CN(C)C1=O (stereo partly drawn) [PP1350] | B (a compound having 3 or more and less than 10 is denoted as B) | B (a compound having 3 or more and less than 10 is denoted as B) | 20.1
CCO[C@@H]1C[C@H]2C(=O)NC3(CCCC3)C(=O)N(C)[C@@H](C3CCCC3)C(=O)N(C)[C@H](C(=O)N(C)C)CC(=O)N(C)[C@@H](CC3CC3)C(=O)N[C@@H]([C@@H](C)CC)C(=O)N(C)CC(=O)N(C)[C@H]3C[C@@H](C)[C@@H](C)CN(C3=O)[C@@H](Cc3ccc(C(F)(F)F)cc3)C(=O)N(C)CC(=O)N[C@@H](CCc3ccc(C(F)(F)F)c(Cl)c3)C(=O)N2C1 [PP1362] | A (a compound having 10 or more and less than 20 is denoted as A) | B (a compound having 3 or more and less than 10 is denoted as B) | 3.7
CCO[C@@H]1C[C@H]2C(=O)NC3(CCC3)C(=O)N(C)[C@@H](C(CC)CC)C(=O)N(C)[C@H](C(=O)N(C)C)CC(=O)N(C)[C@@H](CC)C(=O)N[C@@H]([C@@H](C)CC)C(=O)N(C)CC(=O)N(C)[C@H]3C/C=C\CCN(C3=O)[C@@H](Cc3ccc(C(F)(F)F)cc3)C(=O)N(C)CC(=O)N[C@@H](CCc3ccc(C(F)(F)F)c(OC)c3)C(=O)N2C1 [PP1207] | AA (a compound having 20 or more is denoted as AA) | A (a compound having 10 or more and less than 20 is denoted as A) | 29.9
CCO[C@@H]1C[C@H]2C(=O)NC3(CCOCC3)C(=O)N(C)[C@@H](C3CCCC3)C(=O)N(C)[C@H](C(=O)N(C)C)CC(=O)N(C)[C@@H](CC)C(=O)N[C@@H]([C@@H](C)CC)C(=O)N(C)CC(=O)N(C)[C@H]3C/C=C\CCN(C3=O)[C@@H](Cc3ccc(C(F)(F)F)cc3)C(=O)N(C)CC(=O)N[C@@H](CCc3cc(F)c(C(F)(F)F)c(F)c3)C(=O)N2C1 [PP1279] | A (a compound having 10 or more and less than 20 is denoted as A) | A (a compound having 10 or more and less than 20 is denoted as A) | 72.6
CCO[C@@H]1C[C@H]2C(=O)NC3(CCC3)C(=O)N(C)[C@@H](C3CCCC3)C(=O)N(C)[C@H](C(=O)N(C)C)CC(=O)N(C)[C@@H](CC)C(=O)N[C@@H]([C@@H](C)CC)C(=O)N(C)CC(=O)N(C)[C@H]3C/C=C\CCN(C3=O)[C@@H](Cc3ccc(C(F)(F)F)cc3)C(=O)N(C)CC(=O)N[C@@H](CCc3ccc(Cl)c(Cl)c3)C(=O)N2C1 [PP1249] | A (a compound having 10 or more and less than 20 is denoted as A) | A (a compound having 10 or more and less than 20 is denoted as A) | 55.4
